Read-outs that look alike come from different tables or passages of the source.
Columns and labels:
A375 cells (parental) [1] = experiment: Dose-response curves and IC50, PrestoBlue cell viability, 72 h; assay type: cell-based, human; conditions: read-out: Half-maximal inhibitory concentration value (IC50), Mean
[2] = test system: A375-XP cells (Vemurafenib-resistant); experiment: as above; assay type: cell-based, human; conditions: n.e. = did not suppress growth below 50% in the tested concentration range, read-out: Half-maximal inhibitory concentration value (IC50), Mean
[3] = test system: A375-GP cells (Dabrafenib-resistant); experiment: as above; assay type: cell-based, human; conditions: n.e. = did not suppress growth below 50% in the tested concentration range, read-out: Half-maximal inhibitory concentration value (IC50), Mean
[4] = test system: IGR37-GP cells (Dabrafenib-resistant); experiment: Kinase inhibitor library screening, PrestoBlue cell viability, 1 or 10 μM, 72 h; conditions: IGR37 GP, 72 h
[5] = test system: 501Mel-XP cells (Vemurafenib-resistant); experiment: as above; conditions: 501Mel XP, 72 h
[6] = test system: IGR37-XP cells (Vemurafenib-resistant); experiment: as above; conditions: IGR37 XP, 72 h
[7] = test system: 501Mel-GP cells (Dabrafenib-resistant); experiment: as above; conditions: 501Mel GP, 72 h
A375 cells (parental) [8] = experiment: as above; conditions: A375 Parental, 72 h
IGR37 cells (parental) = experiment: as above; conditions: IGR37 Parental, 72 h
501Mel cells (parental) = experiment: as above; conditions: 501Mel Parental, 72 h
Procedure, shortened: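 Parental cells and Vemurafenib-resistant (XP) or Dabrafenib-resistant (GP) derivatives were treated with library kinase inhibitors at 1 and 10 μM for 72 h. Viability measured by PrestoBlue and expressed as % of untreated cells, at least in duplicate.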

[9] = test system: A375-XP cells (Vemurafenib-resistant); experiment: as above; conditions: A375 XP, 72 h
[10] = test system: A375-GP cells (Dabrafenib-resistant); experiment: as above; conditions: A375 GP, 72 h
[11] = test system: IGR37-GP cells (Dabrafenib-resistant); experiment: Dose-response curves and IC50, PrestoBlue cell viability, 72 h; conditions: Homo sapiens, 72 h, read-out: Half-maximal inhibitory concentration (IC50)
Procedure: All inhibitors used in this study were purchased from Selleck Chemicals (Houston, USA). They were dissolved in DMSO to a stock concentration of 10 mM according to the manufacturer’s instructions and stored at − 80 °C. […] Cell viability was measured with the PrestoBlue Cell Viability Reagent (ThermoFisher Scientific) on a CLARIOstar Monochromator microplate reader (BMG Labtech). Using the GraphPad Prism v5.04 software, the half-maximal inhibitor concentration values (IC50) were determined from the curve using the nonlinear log (inhibitor) vs response-variable slope (four parameters) equation. […] The IC50’s were determined for 3 biological replicates and are listed with their standard deviations.
Values represent the mean of at least three biological replicates; one representative curve of at least 3 biological replicates is depicted. _XP: cells resistant to Vemurafenib (red), _GP: cells resistant to Dabrafenib (green).

[12] = n.e. = did not suppress growth below 50% in the tested concentration range
[13] = Homo sapiens, A-375, n.e. = did not suppress growth below 50% in the tested concentration range

| Structure (SMILES) | IC50 (A375 cells (parental) [1]; [12]) [nM] | IC50 [2] [nM] | IC50 [3] [nM] | cell viability (kinase inhibitor library screening) ([4]; 1μΜ) [%] | cell viability (kinase inhibitor library screening) ([4]; 10μΜ) [%] | cell viability (kinase inhibitor library screening) ([5]; 1μΜ) [%] | cell viability (kinase inhibitor library screening) ([5]; 10μΜ) [%] | cell viability (kinase inhibitor library screening) ([6]; 1μΜ) [%] | cell viability (kinase inhibitor library screening) ([6]; 10μΜ) [%] | cell viability (kinase inhibitor library screening) ([7]; 10μΜ) [%] | cell viability (kinase inhibitor library screening) (A375 cells (parental) [8]; 10μΜ) [%] | cell viability (kinase inhibitor library screening) (A375 cells (parental) [8]; 1μΜ) [%] | cell viability (kinase inhibitor library screening) (IGR37 cells (parental); 1μΜ) [%] | cell viability (kinase inhibitor library screening) (IGR37 cells (parental); 10μΜ) [%] | cell viability (kinase inhibitor library screening) (501Mel cells (parental); 1μΜ) [%] | cell viability (kinase inhibitor library screening) (501Mel cells (parental); 10μΜ) [%] | cell viability (kinase inhibitor library screening) ([9]; 1μΜ) [%] | cell viability (kinase inhibitor library screening) ([9]; 10μΜ) [%] | cell viability (kinase inhibitor library screening) ([10]; 1μΜ) [%] | cell viability (kinase inhibitor library screening) ([10]; 10μΜ) [%] | other results |
| --- | --- | --- | --- | --- | --- | --- | --- | --- | --- | --- | --- | --- | --- | --- | --- | --- | --- | --- | --- | --- | --- |
| COc1ccc(-c2cc3c(C)nc(N)nc3n([C@H]3CC[C@H](OCCO)CC3)c2=O)cn1 [PF-04691502, reference compound] | 298 | 191 | 254 |  |  |  |  |  |  |  |  |  |  |  |  |  |  |  |  |  | Cell viability in kinase inhibitor library screening, IGR37 GP, 10μΜ ([4]; 10μΜ): 7.5%; Cell viability in kinase inhibitor library screening, IGR37 GP, 1μΜ ([4]; 1μΜ, in %): 50.6; Cell viability in kinase inhibitor library screening, 501Mel XP, 1μΜ ([5]; 1μΜ, in %): 10.0; Cell viability in kinase inhibitor library screening, 501Mel XP, 10μΜ ([5]; 10μΜ, in %): -0.224; Cell viability in kinase inhibitor library screening, IGR37 XP, 10μΜ ([6]; 10μΜ): 3.2%; Cell viability in kinase inhibitor library screening, IGR37 XP, 1μΜ ([6]; 1μΜ, in %): 22.1; Cell viability in kinase inhibitor library screening, 501Mel GP, 1μΜ ([7]; 1μΜ, in %): 14.9; Cell viability in kinase inhibitor library screening, 501Mel GP, 10μΜ ([7]; 10μΜ, in %): 0.379; Cell viability in kinase inhibitor library screening, A375 Parental, 10μΜ (A375 cells (parental) [8]; 10μΜ): 2.9; Cell viability in kinase inhibitor library screening, A375 Parental, 1μΜ (A375 cells (parental) [8]; 1μΜ): 25.2; Cell viability in kinase inhibitor library screening, IGR37 Parental, 1μΜ (IGR37 cells (parental); 1μΜ, in %): 38.6; Cell viability in kinase inhibitor library screening, IGR37 Parental, 10μΜ (IGR37 cells (parental); 10μΜ, in %): 5.0; Cell viability in kinase inhibitor library screening, 501Mel Parental, 1μΜ (501Mel cells (parental); 1μΜ, in %): 21.9; Cell viability in kinase inhibitor library screening, 501Mel Parental, 10μΜ (501Mel cells (parental); 10μΜ, in %): 0.8; Cell viability in kinase inhibitor library screening, A375 XP, 1μΜ ([9]; 1μΜ): 18.5; Cell viability in kinase inhibitor library screening, A375 XP, 10μΜ ([9]; 10μΜ): 3.3; Cell viability in kinase inhibitor library screening, A375 GP, 1μΜ ([10]; 1μΜ): 22.6; Cell viability in kinase inhibitor library screening, A375 GP, 10μΜ ([10]; 10μΜ): 3.9 |
| CNC(=O)c1c(F)cccc1Nc1nc(Nc2cc3c(cc2OC)CCN3C(=O)CN(C)C)nc2[nH]ccc12 [GSK1838705A, reference compound] | 1200 | 769 | 969 |  |  |  |  |  |  |  |  |  |  |  |  |  |  |  |  |  | cell viability, IGR37 GP, 10μΜ ([4]; 10μΜ): 2%; cell viability, IGR37 GP, 1μΜ ([4]; 1μΜ, in %): 73.7; cell viability, 501Mel XP, 1μΜ ([5]; 1μΜ, in %): 70.4; cell viability, 501Mel XP, 10μΜ ([5]; 10μΜ, in %): -0.3; cell viability, IGR37 XP, 10μΜ ([6]; 10μΜ): 1%; cell viability, IGR37 XP, 1μΜ ([6]; 1μΜ, in %): 42.8; cell viability, 501Mel GP, 1μΜ ([7]; 1μΜ, in %): 75.8; cell viability, 501Mel GP, 10μΜ ([7]; 10μΜ, in %): -0.19; cell viability, A375 Parental, 1μΜ (A375 cells (parental) [8]; 1μΜ, in %): 68.1; cell viability, A375 Parental, 10μΜ (A375 cells (parental) [8]; 10μΜ, in %): 12.8; cell viability, IGR37 Parental, 1μΜ (IGR37 cells (parental); 1μΜ, in %): 92.2; cell viability, IGR37 Parental, 10μΜ (IGR37 cells (parental); 10μΜ, in %): 1.2; cell viability, 501Mel Parental, 1μΜ (501Mel cells (parental); 1μΜ, in %): 73.7; cell viability, 501Mel Parental, 10μΜ (501Mel cells (parental); 10μΜ, in %): 0.4; cell viability, A375 XP, 1μΜ ([9]; 1μΜ, in %): 70.8; cell viability, A375 XP, 10μΜ ([9]; 10μΜ, in %): 11.1; cell viability, A375 GP, 1μΜ ([10]; 1μΜ, in %): 67.8; cell viability, A375 GP, 10μΜ ([10]; 10μΜ, in %): 10.4 |
| Nc1ncnc2c1c(-c1cnc3[nH]ccc3c1)nn2C1CCCC1 [PP-121, reference compound] | 550 | 648 | 417 | 69.2 | 9.1 | 51.0 | 2.4 | 60.1 | 4.3 | 5.9 | 6.5 | 45.3 | 75.3 | 14.0 | 55.7 | 3.0 | 37.9 | 4.5 | 36.1 | 8.1 | cell viability (kinase inhibitor library screening) ([7]; 1μΜ): 44.0% |
| CCS(=O)(=O)c1cccc(-c2cc(C(=O)NC3CCN(C)CC3)c(C)c3[nH]c4ncc(C)cc4c23)c1 [TAK-901, reference compound] |  |  |  | 97.2 | 9.5 | 83.2 | 25.7 | 73.0 | 4.0 | 29.0 | 7.6 | 45.8 | 93.0 | 30.2 | 82.7 | 12.7 | 52.1 | 9.6 | 41.6 | 8.5 | IC50 (A375 cells (parental) [1]; [13]): 398 nM; IC50 ([2]; Homo sapiens): 472 nM; IC50 ([3]; Homo sapiens): 338 nM; cell viability (kinase inhibitor library screening) ([7]; 1μΜ): 88.7% |
| CC(=O)Nc1cccc(-n2c(=O)n(C3CC3)c(=O)c3c(Nc4ccc(I)cc4F)n(C)c(=O)c(C)c32)c1 [Trametinib] |  |  |  |  |  |  |  |  |  |  |  |  |  |  |  |  |  |  |  |  | IC50 [11]: 0.7 nM; IC50 (A375 cells (parental) [1]; [13]): 0.4 nM; IC50 ([2]; Homo sapiens): 2.4 nM; IC50 ([3]; Homo sapiens): 1.2 nM |
| CC(C)CC(=O)Nc1[nH]nc2c1CN(C(=O)C1CCN(C)CC1)C2(C)C [PHA-793887, reference compound] |  |  |  | 96.5 | 23.5 | 88.3 | 13.3 | 87.3 | 5.3 | 25.0 | 8.5 | 47.0 | 100.2 | 41.8 | 90.8 | 20.0 | 60.1 | 10.2 | 52.2 | 4.2 | IC50 (A375 cells (parental) [1]; [13]): 578 nM; IC50 ([2]; Homo sapiens): 1050 nM; IC50 ([3]; Homo sapiens): 720 nM |
